Here are results for 60 molecules from patent US7022736B2, “Enzyme inhibitors” (Istituto Di Ricerche Di Biologia Molecolare P Angeletti SpA, priority 1998, dated 2006).

T1 sequence (P26663 2420-3010): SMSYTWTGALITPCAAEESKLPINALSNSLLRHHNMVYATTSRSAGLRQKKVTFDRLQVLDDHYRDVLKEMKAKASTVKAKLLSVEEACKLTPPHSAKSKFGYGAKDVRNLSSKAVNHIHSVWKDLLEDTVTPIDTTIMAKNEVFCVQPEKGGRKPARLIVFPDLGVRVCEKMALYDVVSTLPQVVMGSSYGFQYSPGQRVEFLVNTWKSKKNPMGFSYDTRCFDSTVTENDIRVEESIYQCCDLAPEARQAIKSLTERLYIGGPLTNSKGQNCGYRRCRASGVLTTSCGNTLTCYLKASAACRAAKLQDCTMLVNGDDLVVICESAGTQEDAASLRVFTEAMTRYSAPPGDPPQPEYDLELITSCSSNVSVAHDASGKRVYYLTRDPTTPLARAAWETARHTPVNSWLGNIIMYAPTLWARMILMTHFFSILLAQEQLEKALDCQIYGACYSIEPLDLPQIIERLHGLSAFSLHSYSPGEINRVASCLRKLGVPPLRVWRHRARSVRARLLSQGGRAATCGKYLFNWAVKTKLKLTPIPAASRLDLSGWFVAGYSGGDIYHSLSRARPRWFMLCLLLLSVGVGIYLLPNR

The first assay has as its target T1, HCV RdRp (NS5B RNA-dependent RNA polymerase) (Hepatitis C virus genotype 1b, UniProt P26663).
T1 construct: The HCV NS5B protein is the viral RdRp; made in house; host or cells: insect cells infected with recombinant baculovirus
Nature of the assay: Inhibition of hepatitis C virus RdRp (poly(A)/oligo(U), [3H]UTP incorporation).
Conditions: not given
Type of assay: biochemical. The method, then: In initial tests, the compounds were tested to see if they were effective as inhibitors of the RNA-dependent RNA polymerase (RdRp) of hepatitis C virus (HCV). The HCV NS5B protein is the viral RdRp; compounds capable of interfering with the activity of this enzyme are thus expected to block viral replication.
Test for Inhibition of Hepatatis C Virus RdRp
WO96/37619 describes the production of recombinant HCV RdRp from insect cells infected with recombinant baculovirus encoding the enzyme. […] The reference describes a polymerisation assay using poly (A) as a template and oligo (U) as a primer. Incorporation of tritiated UTP is quantified by measuring acid-insoluble radioactivity. The present inventors have employed this assay to screen the various compounds described above as inhibitors of HCV RdRp and other virally encoded polymerases.
Incorporation of radioactive UMP was measured as follows. The standard reaction (100 μl) was carried out in a buffer containing 20 mM tris/HCl pH 7.5, 5 mM MgCl2, 1 mM DTT, 50 mM NaCl, 1 mM EDTA, 2 OU Rnasin (Promega), 0.05% Triton X-100, 1 μCi[^3H] UTP (40 Ci/mmol,NEN), 10 μM UTP and 10 μg/ml poly (A). Oligo (U)12 (1 μg/ml, Genset) was added as a primer. The final NSSB enzyme concentration was 20 nM. After 1 hour incubation at 22° C. the reaction was stopped by adding 100 μl of 20% TCA and applying samples to DE81 filters. The filters were washed thoroughly with 5% TCA containing 1M Na2HPO4/NaH2PO4, pH 7.0, rinsed with water and then ethanol, air dried, and the filter-bound radioactivity was measured in the scintillation counter. By carrying out the reaction in the presence of various concentrations of each of the compounds set out above it was possible to determine IC50 values for each compound with the formula: % residual activity=100/(1+[I]/IC50)^s where [I] is the inhibitor concentration and “s” is the slope of the inhibition curve. Test for Inhibition of Hepatitis B Virus Polymerase
In the case of `O=C(O)C(=O)CC(=O)c1ccco1` [Example 216], the IC50 was 50 µM.

Staying with this assay, now noted: Tables I-VIII; 20 nM NS5B, 1 hour at 22° C.; read-out: IC 50 (μM), HCV-polymerase.
With `Cc1ccc(-c2sccc2C(=O)C=C(O)C(=O)O)cc1` [Example 226], the IC50 worked out at 17 µM.

In the case of `Cc1c(Cl)cccc1S(=O)(=O)Nc1cccc(C(=O)C=C(O)C(=O)O)c1` [Example 123], the IC50 came to 0.29 µM.

Regarding `N#CCCCn1cccc1C(=O)C=C(O)C(=O)O` [Example 173], the IC50 turned out to be 21 µM.

For the molecule `O=C(O)C(O)=CC(=O)c1cccc(OCc2ccc(Cl)c(Cl)c2)c1` [Example 133], the IC50 worked out at 3.2 µM.

As to `Cc1ccc(Oc2ccccc2C(=O)C=C(O)C(=O)O)cc1` [Example 39], the IC50 is 22 µM.

`Cc1cccc(COc2cccc(C(=O)C=C(O)C(=O)O)c2)c1F` [Example 86]: the IC50 amounted to 2.05 µM.

For the molecule `N#CCCCOc1cccc(OCCCC#N)c1C(=O)C=C(O)C(=O)O` [Example 171], the IC50 was found to be 12 µM.

As for `O=C(O)C(O)=CC(=O)c1ccccc1/C=C/c1ccccc1` [Example 55], the IC50 was 10.8 µM.

For the molecule `O=C(O)C(O)=CC(=O)c1cc(Cc2ccccc2)ccc1F` [Example 152], the IC50 came out at 20 µM.

Turning to `O=C(O)C(O)=CC(=O)c1cccc(NS(=O)(=O)c2cccc([N+](=O)[O-])c2)c1` [Example 142], the IC50 was 0.4 µM.

With `O=C(O)C(O)=CC(=O)c1cccc(NS(=O)(=O)c2c(Cl)sc(Cl)c2Br)c1` [Example 130], the IC50 came out at 0.14 µM.

Take `O=C(O)C(O)=CC(=O)c1cccc(NS(=O)(=O)c2ccc(C(F)(F)F)cc2Cl)c1` [Example 115]: the IC50 came out at 3.7 µM.

For the molecule `O=C(O)C(O)=CC(=O)c1cc(Cl)sc1Cl` [Example 224], the IC50 came out at 50 µM.

Take `O=C(O)C(O)=CC(=O)c1cccn1CCCc1ccc(F)cc1` [Example 187]: the IC50 was found to be 36 µM.

Consider `O=C(O)C(O)=CC(=O)c1ccsc1Sc1ccc(F)cc1` [Example 234], for which the IC50 was 14.5 µM.

As for `C=CCOc1cccc(C(=O)C=C(O)C(=O)O)c1` [Example 5], the IC50 stood at 17 µM.

Take `O=C(O)C(O)=CC(=O)C1(c2ccccc2)CCN(S(=O)(=O)c2ccc(Cl)c(Cl)c2)CC1` [Example 250]: the IC50 turned out to be 17 µM.

`O=C(O)C(O)=CC(=O)C1(c2ccccc2)CCN(S(=O)(=O)c2cccc(Cl)c2)CC1` [Example 246]: the IC50 worked out at 18 µM.

For `O=C(O)C(O)=CC(=O)c1cccc(NS(=O)(=O)c2ccc(Cl)s2)c1` [Example 102], the IC50 came to 1.5 µM.

In the case of `O=C(O)C(O)=CC(=O)c1cccc(OCCCCn2c(C(F)(F)F)nc3ccccc32)c1` [Example 22], the IC50 came to 19 µM.

Turning to `N#Cc1ccc(Cn2cccc2C(=O)C=C(O)C(=O)O)cc1` [Example 183], the IC50 was determined as 32 µM.

For `Cc1ccccc1C(=O)C=C(O)C(=O)O` [Example 2], the IC50 came to 3 µM.

For the molecule `O=C(O)C(O)=CC(=O)c1cccn1Cc1ccccc1Cl` [Example 186], the IC50 was determined as 24 µM.

For `Cn1cc(C(=O)C=C(O)C(=O)O)cc1Cc1cccc(F)c1` [Example 221], the IC50 is 20.6 µM.

Take `O=C(O)C(O)=CC(=O)c1ccc(Cl)cc1` [Example 166]: the IC50 worked out at 20 µM.

As to `O=C(O)C(O)=CC(=O)c1cccc(NS(=O)(=O)c2cccs2)c1` [Example 101], the IC50 was found to be 7 µM.

As to `O=C(O)C(O)=CC(=O)c1cccc(OCc2cccnc2)c1` [Example 71], the IC50 was 10.6 µM.

On to `O=C(O)C(O)=CC(=O)c1cccc(NS(=O)(=O)c2ccc(Cl)c(Cl)c2Cl)c1` [Example 125], for which the IC50 worked out at 0.17 µM.

For `Cc1cc(S(=O)(=O)Nc2cccc(C(=O)C=C(O)C(=O)O)c2)c(C)cc1Cl` [Example 147], the IC50 worked out at 1.3 µM.

For `N#CCCCOc1ccc(-c2ccccc2)cc1C(=O)C=C(O)C(=O)O` [Example 58], the IC50 amounted to 13.6 µM.

`C=CCN(CC=C)c1ccc(C(=O)C=C(O)C(=O)O)s1` [Example 203]: the IC50 was 19.8 µM.

As to `Cc1cc(C(=O)C=C(O)C(=O)O)c(C)o1` [Example 237], the IC50 was 14 µM.

Take `O=C(O)C(O)=CC(=O)c1cccc(NS(=O)(=O)c2cc(Cl)c(Cl)cc2Cl)c1` [Example 119]: the IC50 came out at 0.049 µM.

On to `O=C(O)C(O)=CC(=O)c1cccc(NS(=O)(=O)Cc2ccccc2)c1` [Example 108], for which the IC50 was found to be 6.9 µM.

For the molecule `N#CC(CCOc1ccccc1C(=O)C=C(O)C(=O)O)(c1ccccc1)c1ccccc1` [Example 69], the IC50 was 14 µM.

In the case of `O=C(O)C(O)=CC(=O)c1cccc(NS(=O)(=O)c2ccc(-c3ccccc3)cc2)c1` [Example 124], the IC50 amounted to 28 µM.

Turning to `O=C(O)C(O)=CC(=O)c1sccc1Cl` [Example 194], the IC50 amounted to 16 µM.

Consider `O=C(O)C(O)=CC(=O)c1ccccc1Oc1ccc(F)cc1` [Example 37], for which the IC50 was 18 µM.

For the molecule `O=C(O)C(O)=CC(=O)c1cccc(NS(=O)(=O)c2c(Cl)cc(C(F)(F)F)cc2Cl)c1` [Example 140], the IC50 amounted to 1 µM.

In the case of `O=C(O)C(O)=CC(=O)c1cccc(S(=O)(=O)Nc2ccc(Cl)cc2)c1` [Example 145], the IC50 worked out at 1.2 µM.

Regarding `O=C(O)C(O)=CC(=O)c1cc(I)cn1Cc1ccc(F)cc1` [Example 190], the IC50 is 18 µM.

With `O=C(O)C(O)=CC(=O)c1sccc1Sc1ccccc1` [Example 209], the IC50 came to 12.6 µM.

In the case of `C#CCCCOc1ccccc1C(=O)C=C(O)C(=O)O` [Example 51], the IC50 is 1.9 µM.

On to `O=C(O)C(O)=CC(=O)c1sccc1Sc1cccc(F)c1` [Example 213], for which the IC50 is 5.9 µM.

Regarding `CCCCCCCOc1ccccc1C(=O)C=C(O)C(=O)O` [Example 31], the IC50 was determined as 18 µM.

Regarding `O=C(O)C(O)=CC(=O)c1cccc(NS(=O)(=O)c2ccccc2)c1` [Example 67], the IC50 was 16 µM.

Take `O=C(O)C(O)=CC(=O)c1cccn1CC1CCCCC1` [Example 178]: the IC50 stood at 17.9 µM.

Consider `O=C(O)C(O)=CC(=O)c1cccc(OCc2cccc[n+]2[O-])c1` [Example 105], for which the IC50 turned out to be 13.7 µM.

Regarding `CC(C)(C)OC(=O)Nc1cccc(C(=O)C=C(O)C(=O)O)c1` [Example 61], the IC50 was determined as 31 µM.

For the molecule `Cc1ccc(C(=O)C=C(O)C(=O)O)c(OCCCC#N)c1` [Example 167], the IC50 came to 0.6 µM.

On to `O=C(O)C(O)=CC(=O)c1cccc(NS(=O)(=O)c2cc(Cl)cc(Cl)c2O)c1` [Example 127], for which the IC50 worked out at 0.3 µM.

For `Cc1cc(COc2cccc(C(=O)C=C(O)C(=O)O)c2)no1` [Example 106], the IC50 was 6.8 µM.

As to `O=C(O)C(O)=CC(=O)c1cccn1Cc1ccc(O)cc1` [Example 179], the IC50 was 12.8 µM.

For `CCCCOc1ccccc1C(=O)C=C(O)C(=O)O` [Example 52], the IC50 came out at 10 µM.

In the case of `COc1cccc(C(=O)C=C(O)C(=O)O)c1` [Example 60], the IC50 is 40 µM.

In the case of `O=C(O)C(O)=CC(=O)c1sccc1Br` [Example 199], the IC50 was determined as 17 µM.

In the case of `O=C(O)C(O)=CC(=O)c1cccc(OCc2cccc(C(F)(F)F)c2)c1` [Example 93], the IC50 was 1.9 µM.

For the molecule `Cc1cc(S(=O)(=O)Nc2cccc(C(=O)C=C(O)C(=O)O)c2)c(Cl)cc1Cl` [Example 149], the IC50 turned out to be 0.55 µM.

Regarding `O=C(O)C(O)=CC(=O)c1cccc(OCc2ccc(C(=O)O)cc2Cl)c1` [Example 100], the IC50 is 7.8 µM.

The assay is the same for the next values; noted with them: Tables IXa-IXc; unit inferred; read-out: HCV (IC50).
Turning to `O=C(O)C(O)=CC(=O)c1cc(I)cn1Cc1ccc(F)cc1` [Example 190], the IC50 stood at 18 µM.

As for `O=C(O)C(O)=CC(=O)c1cccn1Cc1ccc(O)cc1` [Example 179], the IC50 was 12.8 µM.
